Results taken from patent publication US6184018A, “β-glucosidase coding sequences and protein from orpinomyces PC-2” (University of Georgia Research Foundation, Inc., priority 1999, dated 2001).
Where two headings read alike, the source gives them in different places.

Experiments:
[1] = test system: native β-glucosidase of Orpinomyces PC-2; details: Chen et al. (1994), cited from earlier work
[2] = test system: β-glucosidase from T. reesei; details: Chen et al. (1992), cited from earlier work
[3] = target: β-glucosidase from Aspergillus niger (Aspergillus niger, UniProt A2RAL4); details: read-out: Cellobiose affinity (Km); Hoh et al. (1992); cited from earlier work
[4] = test system: β-glucosidase from Aspergillus nidulans; details: Kwon et al. (1992), cited from earlier work
[5] = test system: β-glucosidase from Aureobasidium pullulans; details: Saha et al. (1995), cited from earlier work
[6] = test system: β-glucosidase from Thermotoga sp; details: Ruthersmith and Daniel (1993), cited from earlier work
[7] = test system: β-glucosidase from Sporotrichum thermophile; details: Bhat et al. (1993), cited from earlier work
[8] = test system: β-glucosidase from Clostridium thermocellum; details: Katayeva et al. (1992); read-out: Cellobiose affinity (Km); cited from earlier work
[9] = target: T1, Orpinomyces sp. strain PC-2 β-glucosidase BglA, recombinant, secreted from S. cerevisiae, SEQ ID NO:2 (Orpinomyces sp. PC-2, UniProt Q9UUQ3); test: Kinetic parameters of purified secreted recombinant BglA (Lineweaver-Burk plots); format: biochemical
T1 sequence (Q9UUQ3 17-657): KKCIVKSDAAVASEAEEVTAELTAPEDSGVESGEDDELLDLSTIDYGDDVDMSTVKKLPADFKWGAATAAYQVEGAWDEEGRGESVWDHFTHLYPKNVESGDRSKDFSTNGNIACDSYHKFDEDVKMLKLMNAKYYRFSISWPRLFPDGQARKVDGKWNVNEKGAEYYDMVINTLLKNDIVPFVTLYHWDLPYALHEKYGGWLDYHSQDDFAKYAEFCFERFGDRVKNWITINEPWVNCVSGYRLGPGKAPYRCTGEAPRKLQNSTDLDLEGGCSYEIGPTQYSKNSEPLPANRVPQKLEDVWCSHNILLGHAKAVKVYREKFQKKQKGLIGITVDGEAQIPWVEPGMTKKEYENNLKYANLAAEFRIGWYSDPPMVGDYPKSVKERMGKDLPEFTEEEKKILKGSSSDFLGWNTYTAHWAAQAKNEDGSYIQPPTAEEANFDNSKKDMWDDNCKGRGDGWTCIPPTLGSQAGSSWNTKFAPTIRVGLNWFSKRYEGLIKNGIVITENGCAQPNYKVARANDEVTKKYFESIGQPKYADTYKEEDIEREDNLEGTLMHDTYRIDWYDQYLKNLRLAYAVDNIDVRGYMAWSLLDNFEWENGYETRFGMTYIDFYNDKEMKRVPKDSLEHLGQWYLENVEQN
Description: (§1) β-Glucosidase (.rho.-nitrophenyl-β-D-glucosidase [.rho.NPGase]) and cellobiase activities were determined by the following standard procedures. With .rho.-nitrophenyl-β-D-glucoside (.rho.NPG) as the substrate, the reaction mixture of 1.2 ml contained 0.3 ml of appropriately diluted enzyme solution, 0.6 ml of 50 mM sodium phosphate buffer, pH 6.0, and 0.3 ml of 12 mM .rho.NPG. The reaction was carried out for 10 min at 40° C. and stopped by the addition of 2.4 ml of 1M Na2 CO3. The liberated .rho.-nitrophenol was measured spectrophotometrically at 405 nm [Herr et al. (1978) Appl. Microbiol. Biotechnol. 5:29-36; Chen et al. (1992) Biochem. Biophys. Acta. 1121:54-60]. Cellobiase activity was determined by using a reaction mixture of 2 ml containing 1 ml of appropriately diluted enzyme solution in 50 mM sodium phosphate buffer, pH 6.0, and 1 ml of 2 mM cellobiose. The reaction was carried out at 40° C. for 30 min and was stopped by placing the assay tubes in boiling water for 5 min. Liberated glucose was measured with a glucose determination kit (Sigma Chemical Co., St. Louis, Mo.) according to the manufacturer's instructions. One unit of β-glucosidase or cellobiase activity is defined as the amount of enzyme required to hydrolyze 1 μmole of substrate per min. Specific activity is expressed as unit per milligram of protein. […]

[10] = substrate: O=[N+]([O-])c1ccc(O[C@@H]2O[C@H](CO)[C@@H](O)[C@H](O)[C@H]2O)cc1; test: as above; format: biochemical, Orpinomyces sp. strain PC-2; details: other: 40° C. and pH 6.0
Description: as §1

[11] = substrate: OC[C@H]1O[C@@H](O[C@H]2[C@H](O)[C@@H](O)C(O)O[C@@H]2CO)[C@H](O)[C@@H](O)[C@@H]1O; test: as above; format: biochemical, Orpinomyces sp. strain PC-2; details: other: 40° C. and pH 6.0
Description: as §1

[12] = read-out: Cellobiose affinity (Km)
[13] = read-out: Glucose inhibition (Ki)

Chain of β-glucosidase from Aspergillus niger (A2RAL4 20-860): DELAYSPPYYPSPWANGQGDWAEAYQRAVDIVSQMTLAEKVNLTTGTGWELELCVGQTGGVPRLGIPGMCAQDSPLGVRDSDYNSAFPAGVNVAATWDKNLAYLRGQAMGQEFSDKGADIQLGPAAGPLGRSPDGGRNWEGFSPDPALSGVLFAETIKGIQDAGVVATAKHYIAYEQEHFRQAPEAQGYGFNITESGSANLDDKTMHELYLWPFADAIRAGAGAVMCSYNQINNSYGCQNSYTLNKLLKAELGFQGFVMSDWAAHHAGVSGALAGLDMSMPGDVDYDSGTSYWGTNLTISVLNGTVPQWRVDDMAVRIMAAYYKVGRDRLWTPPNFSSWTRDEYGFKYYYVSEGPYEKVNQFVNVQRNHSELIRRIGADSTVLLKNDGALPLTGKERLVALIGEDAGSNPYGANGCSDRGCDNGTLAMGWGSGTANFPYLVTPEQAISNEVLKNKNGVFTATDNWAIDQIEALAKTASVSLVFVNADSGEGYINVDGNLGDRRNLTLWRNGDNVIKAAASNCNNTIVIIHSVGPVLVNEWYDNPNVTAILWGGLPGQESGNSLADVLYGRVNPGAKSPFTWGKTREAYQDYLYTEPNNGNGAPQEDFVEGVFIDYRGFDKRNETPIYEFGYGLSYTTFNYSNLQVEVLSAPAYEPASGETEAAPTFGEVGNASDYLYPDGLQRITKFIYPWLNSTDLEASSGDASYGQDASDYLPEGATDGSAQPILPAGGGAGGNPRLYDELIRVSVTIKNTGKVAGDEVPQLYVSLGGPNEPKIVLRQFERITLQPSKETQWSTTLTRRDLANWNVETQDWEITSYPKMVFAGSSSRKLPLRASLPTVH

For `OC[C@H]1O[C@@H](O[C@H]2[C@H](O)[C@@H](O)C(O)O[C@@H]2CO)[C@H](O)[C@@H](O)[C@@H]1O` (stereo partly drawn) [Cellobiose, cellobiose (β-1,4-glucobiose)], the Km [1, 12] is given as 250 µM, the Km [2, 12] is given as 2100 µM and the Km [3] is given as 890 µM. For the same molecule, the Km [4, 12] was 1000 µM, the Km [5, 12] was 5650 µM and the Km [6, 12] was 19000 µM. The Km [7, 12] was 830 µM and the Km [8] was 77000 µM.

For `OC[C@H]1OC(O)[C@H](O)[C@@H](O)[C@@H]1O` (stereo partly shown) [Glucose], the Ki [9] is listed as 3600 µM, the Ki [1, 13] is listed as 8750 µM and the Ki [2, 13] is listed as 620 µM. The Ki [4, 13] was 5480 µM, the Ki [5, 13] was 1000 µM and the Ki [6, 13] was 420 µM. The Ki [7, 13] was 500 µM.

`O=C1O[C@H](CO)[C@@H](O)[C@H](O)[C@H]1O` [glucono-1,5-lactone, reference compound] showed a Ki ([9]; competitive inhibition, pNPG and cellobiose as substrates, read-out: Ki of glucono-1,5-lactone) of 50 µM.

For `O=[N+]([O-])c1ccc(O[C@@H]2O[C@H](CO)[C@@H](O)[C@H](O)[C@H]2O)cc1` [pNPG, .rho.-nitrophenyl-β-D-glucoside, reference compound], the Km ([1]; read-out: Km (pNPG as substrate)) is listed as 350 µM.

B1: Orpinomyces sp. strain PC-2 β-glucosidase BglA, recombinant, secreted from S. cerevisiae, SEQ ID NO:2 (Orpinomyces sp. PC-2) (protein)
chain: T1 sequence (Q9UUQ3 17-657)
B1 showed a Km [10] of 762 µM and a Km [11] of 310 µM.
